Test results: ChEMBL document CHEMBL1141360, “Kadsuralignans H-K from Kadsura coccinea and their nitric oxide production inhibitory effects” (J Nat Prod, 2007)
Activity calls are given as the source filed them. The calls are words filed in the database; no cut-off is given here.

Experiments:
RAW264.7 [1] = assay: Inhibition of LPS and INF-gamma-induced nitric oxide production in mouse RAW264.7 cells after 16 hrs; conditions: for IC50: RAW264.7, 16 h
RAW264.7 [2] = assay: Inhibition of LPS-induced nitric oxide production in mouse RAW264.7 cells; type: functional, cell-based

SMILES | Activity (RAW264.7 [1]) | IC50 (RAW264.7 [1]) | IC50 (RAW264.7 [2])
C/C=C(/C)C(=O)O[C@H]1C2=CC(=O)C(OC)=C(OC)[C@@]23COc2c4c(cc(c23)[C@H](OC(C)=O)[C@H](C)[C@]1(C)O)OCO4 | inactive | – | –
COC1=C(OC)[C@]23COc4c5c(cc(c42)[C@H](OC(=O)c2ccccc2)[C@H](C)[C@](C)(O)[C@@H](OC(C)=O)C3=CC1=O)OCO5 | inactive | – | –
COc1cc2c(c(OC(=O)c3ccccc3)c1OC)-c1c(cc3c(c1OC)OCO3)[C@H](O)[C@H](C)[C@H](C)C2 | inactive | – | –
COc1cc([C@@H]2c3c(cc(OC)c(OC)c3O)C[C@@H](C)[C@H]2C)cc2c1OCO2 [KADSURALIGNAN H] | – | 19.6 µM | –
C/C=C(\C)C(=O)Oc1c(OC)c(OC)cc2c1-c1c(cc3c(c1OC)OCO3)[C@H](O)[C@H](C)[C@H](C)C2 [KADSURALIGNAN I] | – | 87.2 µM | –
CCC(C)C(=O)Oc1c(OC)c(OC)cc2c1-c1c(cc3c(c1OC)OCO3)[C@H](O)[C@H](C)[C@H](C)C2 (stereo partly drawn) [KADSURALIGNAN J] | – | 33.5 µM | –
O=c1c(O)c(-c2ccc(O)c(O)c2)oc2cc(O)cc(O)c12 [QUERCETIN] | – | 25 µM | 26.8 µM
